Series [1] deals with c-Jun N-terminal kinase, JNK (Homo sapiens) (UniProt P45983+P53779+P45984). Kind of series: Inhibition of TNFalpha-stimulated JNK phosphorylation in HUVEC up to 20 uM preincubated with cells followed by TNFalpha stimulation measured after 30 mins by Western blot method. In general terms: A western blot detects proteins with antibodies after separation by electrophoresis.
Series [2] has as its system Rattus norvegicus. Kind of series: Inhibition of retinal vascular leakage in STZ-induced Wistar rat diabetic retinopathy model assessed as Evans blue albumin level in retina at 50 ug/eye administered intravitreally measured after 3 days (reference value: 82.94 +/- 11.2 ug/g). In kind it is functional.
Series [3] concerns the target T1, Inhibitor of nuclear factor kappa-B kinase subunit beta (Homo sapiens) (UniProt O14920).
T1 sequence (whole entry): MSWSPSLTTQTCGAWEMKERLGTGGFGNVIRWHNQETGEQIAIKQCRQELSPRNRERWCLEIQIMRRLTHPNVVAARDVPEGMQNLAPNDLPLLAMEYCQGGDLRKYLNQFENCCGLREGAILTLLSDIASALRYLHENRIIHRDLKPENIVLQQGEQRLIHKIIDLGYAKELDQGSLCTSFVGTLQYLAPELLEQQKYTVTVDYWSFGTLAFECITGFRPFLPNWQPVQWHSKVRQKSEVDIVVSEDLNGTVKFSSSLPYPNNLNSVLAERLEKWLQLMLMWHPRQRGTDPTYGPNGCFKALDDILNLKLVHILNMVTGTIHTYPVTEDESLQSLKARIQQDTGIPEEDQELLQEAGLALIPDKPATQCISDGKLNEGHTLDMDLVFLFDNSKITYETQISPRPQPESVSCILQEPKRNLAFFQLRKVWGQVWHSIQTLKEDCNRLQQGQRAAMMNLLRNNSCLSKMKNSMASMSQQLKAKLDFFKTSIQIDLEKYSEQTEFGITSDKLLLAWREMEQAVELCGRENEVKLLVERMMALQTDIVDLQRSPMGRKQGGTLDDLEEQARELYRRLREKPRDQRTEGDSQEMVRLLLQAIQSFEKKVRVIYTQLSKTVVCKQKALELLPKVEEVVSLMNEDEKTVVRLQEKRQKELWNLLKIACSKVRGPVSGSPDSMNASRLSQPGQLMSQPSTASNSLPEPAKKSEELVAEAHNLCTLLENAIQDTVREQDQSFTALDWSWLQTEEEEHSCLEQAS
Kind of series: Inhibition of IKKbeta in HUVEC assessed as reduction in TNFalpha-stimulated IkBalpha phosphorylation at Ser-32 residue preincubated with cells followed by TNFalpha stimulation measured after 30 mins by Western blot method.

Series [4] relates to Rattus norvegicus. Kind of series: Downregulation of TNFalpha level in STZ-induced Wistar rat diabetic retinopathy model at 50 ug/eye administered intravitreally measured after 3 days by Western blot method. Format: functional.
The subject of series [5] is Rattus norvegicus. Kind of series: Toxicity in STZ-induced Wistar rat diabetic retinopathy model assessed as inflammatory cells accumulation in vitreous at 75 ug/eye administered intravitreally measured after 3 days by hematoxylin and eosin staining based assay. As to conditions: in vivo, topical_or_ocular, 72 h.
The species entered for series [6] is Homo sapiens. Kind of series: Inhibition of TNFalpha-stimulated NF-kB in HUVEC assessed as reduction in TNFalpha mRNA level up to 20 uM preincubated with cells followed by TNFalpha stimulation measured after 30 mins by RT-PCR method.
The test system of series [7] is Rattus norvegicus. Kind of series: Toxicity in STZ-induced Wistar rat diabetic retinopathy model assessed as inflammatory cells accumulation in retina at 75 ug/eye administered intravitreally measured after 3 days by hematoxylin and eosin staining based assay. As to conditions: in vivo, topical_or_ocular, 72 h.
Series [8] relates to Rattus norvegicus. Kind of series: Inhibition of retinal leukostasis in STZ-induced Wistar rat diabetic retinopathy model assessed as adherent leukocyte count per retina at 50 ug/eye administered intravitreally measured after 3 days by FITC-ConA staining based fluorescence microscopic method (reference value: 52 +/- 10). In kind it is functional.
The species entered for series [9] is Homo sapiens. Kind of series: Inhibition of TNFalpha-stimulated NF-kB in HUVEC assessed as reduction in ICAM1 mRNA level up to 20 uM preincubated with cells followed by TNFalpha stimulation measured after 30 mins by RT-PCR method.
Series [10] deals with Rattus norvegicus. Kind of series: Toxicity in STZ-induced Wistar rat diabetic retinopathy model assessed as effect on retina thickness at 75 ug/eye administered intravitreally measured after 3 days by hematoxylin and eosin staining based assay. The settings on record: in vivo, topical_or_ocular, 72 h.
Series [11] addresses Transcription factor p65 (Homo sapiens) (UniProt Q04206). Kind of series: Inhibition of TNFalpha-stimulated NF-kB p65 phosphorylation at Ser-276 residue in HUVEC up to 20 uM preincubated with cells followed by TNFalpha stimulation measured after 30 mins by Western blot method.
Series [12] has the same target. Kind of series: Inhibition of TNFalpha-stimulated NF-kB p65 phosphorylation at Ser-536 residue in HUVEC up to 20 uM preincubated with cells followed by TNFalpha stimulation measured after 30 mins by Western blot method.
For series [13], the system named is Rattus norvegicus. Kind of series: Toxicity in STZ-induced Wistar rat diabetic retinopathy model assessed as inflammatory cells accumulation in choroid tissues at 75 ug/eye administered intravitreally measured after 3 days by hematoxylin and eosin staining based assay. The settings on record: in vivo, topical_or_ocular, 72 h.
Series [14] concerns the target T1, Inhibitor of nuclear factor kappa-B kinase subunit beta (Homo sapiens). Kind of series: Inhibition of TNFalpha-stimulated IKKbeta phosphorylation at Ser-177 residue in HUVEC preincubated with cells followed by TNFalpha stimulation measured after 30 mins by Western blot method.
Series [15] concerns Rattus norvegicus. Kind of series: Toxicity in STZ-induced Wistar rat diabetic retinopathy model assessed as TUNEL positive cells in retinal layers at 75 ug/eye administered intravitreally measured after 3 days by fluorescence microscopic method. The settings on record: in vivo, topical_or_ocular, 72 h.
Series [16] concerns Rattus norvegicus. Kind of series: Inhibition of retinal vascular leakage in STZ-induced Wistar rat diabetic retinopathy model assessed as reduction in FITC-dextran leakage at 50 ug/eye administered intravitreally measured after 3 days by fluorescence microscopic method. In kind it is functional.
For series [17], the target named is MAP kinase p38 (Homo sapiens) (UniProt O15264+Q15759+Q16539+P53778). Kind of series: Inhibition of TNFalpha-stimulated MAPK p38 phosphorylation in HUVEC preincubated with cells followed by TNFalpha stimulation measured after 30 mins by Western blot method.
Series [18] addresses Transcription factor p65 (Homo sapiens) (UniProt Q04206). Kind of series: Inhibition of TNFalpha-stimulated NF-kB p65 nuclear translocation in HUVEC up to 20 uM preincubated with cells followed by TNFalpha stimulation measured after 30 mins by Western blot method.
In series [19] the test system is HUVEC. Kind of series: Cytotoxicity against HUVEC assessed as reduction in cell viability up to 20 uM after 24 hrs by MTT assay. In kind it is cell-based. As to conditions: human. For orientation: Tetrazolium assays rely on reduction of a dye to a coloured formazan, in cell work by metabolically active cells.
In series [20] the test system is Rattus norvegicus. Kind of series: Downregulation of ICAM-1 level in STZ-induced Wistar rat diabetic retinopathy model at 50 ug/eye administered intravitreally measured after 3 days by Western blot method. Format: functional.

Active and inactive are the calls of the source. The rule behind the calls is not given here.

In ChEMBL document CHEMBL4007468, “Curcumolide reduces diabetic retinal vascular leukostasis and leakage partly via inhibition of the p38MAPK/NF-κ B signaling” (Bioorg Med Chem Lett, 2017) one finds inhibition and Activity data, which are given here for two compounds.

Chain of Transcription factor p65 (Homo sapiens) (Q04206 whole entry): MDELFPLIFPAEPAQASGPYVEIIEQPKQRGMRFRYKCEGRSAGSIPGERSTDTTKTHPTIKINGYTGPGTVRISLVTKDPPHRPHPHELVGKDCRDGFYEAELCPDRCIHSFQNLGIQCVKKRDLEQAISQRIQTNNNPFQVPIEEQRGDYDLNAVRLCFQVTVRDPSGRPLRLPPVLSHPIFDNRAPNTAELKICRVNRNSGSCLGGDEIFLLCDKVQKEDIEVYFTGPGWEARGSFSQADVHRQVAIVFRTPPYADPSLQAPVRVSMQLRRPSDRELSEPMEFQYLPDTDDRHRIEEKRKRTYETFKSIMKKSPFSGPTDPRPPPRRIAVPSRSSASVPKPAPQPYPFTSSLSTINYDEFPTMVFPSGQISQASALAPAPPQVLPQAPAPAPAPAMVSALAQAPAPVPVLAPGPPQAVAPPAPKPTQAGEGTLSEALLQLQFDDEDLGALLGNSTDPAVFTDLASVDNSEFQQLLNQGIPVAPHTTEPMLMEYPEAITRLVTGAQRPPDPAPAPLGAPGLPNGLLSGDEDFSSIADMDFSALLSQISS

Turning to `CC1=C[C@]2(C(C)(C)O)C[C@]3(OC2=O)[C@@H](C)CC[C@@H]13`, the inhibition entry in [1] is “inactive”. The Activity is 43.53 µg/g in series [2]; “Non-Toxic” in series [5]; “Non-Toxic” in series [7]; 25 in series [8]; “Non-Toxic” in series [10]; “Non-Toxic” in series [13]. For the same compound, the Activity entry in series [15] and in series [19] was “Non-Toxic” each time. Further, the inhibition entry in series [3], in series [14] and in [17] was “Dose-dependent effect” in each case. Further, the result in [4] and in series [20] was Active. The inhibition result in series [6], in series [9], in [11], in series [12], in series [16] and in series [18] was “Active” each time.
Take `CC1(C)O[C@@H]2C[C@H]3[C@@H]4CCC5=CC(=O)C=C[C@]5(C)[C@@]4(F)[C@@H](O)C[C@]3(C)[C@]2(C(=O)CO)O1` [TRIAMCINOLONE ACETONIDE]: the figures for the Activity in series [2] and in [8] were 36.33 µg/g and 19, respectively. Besides, the outcome in series [4] and in series [20] was Active. Moreover, in series [16], the inhibition entry was “Active”.
